Data: publication PMC4134956 (Bioorganic & medicinal chemistry, 2014)
Each block holds one compound with its values, some of them ahead of it.

Legend:
[1] = single injection at 10 mg/kg; non-radioactive version; cited from earlier work
[2] = type: in vivo, NSG male mouse; settings: for preferential tumor localization compared to lung: single injection
[3] = cited from earlier work
[4] = single i.p. injection 20 nmol per animal, 24 hours
[5] = single i.p. injection 20 nmol, 7 days

mean tumor concentration, multiple injection experiment ([2]; 3 injections days 1, 4, 7, 20 nmol i.p. each, harvest 24 h after last): 3.49 mg/kg
accumulation upon repeated injection in tumor and organs assessed ([2]; 3 injections over 7 days): Some twofold accumulation
enrichment in the tumor over all host tissues probed ([2]; 4 hour time point): some two-fold enrichment
liver concentration lower than that in tumors ([2]; 24 hours, p < 0.01): 29%
preferential tumor localization compared to lung ([2]; 24 hours): up to 12 fold
mean tumor-associated concentration ([2]; LNCaP tumor, single i.p. injection 20 nmol per animal, harvest 24 hours): 1.48 mg/kg
lung concentration [2, 4]: 0.12 mg/kg
kidney tissue level [2, 5]: 0.05 mg/kg
lung tissue level [2, 5]: 0.06 mg/kg
tumor tissue level [2, 5]: 0.45 mg/kg
SMILES: CC(=O)N[C@H](CCNC(=O)c1cc(NC(=O)c2cc(NC(=O)c3cc(NC(=O)c4nccn4C)cn3C)cn2C)cn1C)C(=O)Nc1cn(C)c(C(=O)Nc2cc(C(=O)Nc3cc(C(=O)Nc4cc(C(=O)NCCCN(C)CCCN[14C](=O)c5cccc([14C](=O)O)c5)n(C)c4)n(C)c3)n(C)c2)n1 [compound 1, ImPyPyPy-(R)^α-NHAcγ-ImPyPyPy]
liver toxicity [1]: not 1

mean tumor and host tissue values compared with compound 1 ([2]; 24 hours, differently placed C-14 label): within experimental error
preferential tumor localization compared to lung ([2]; 24 hours): up to 12 fold
SMILES: C[14C](=O)N[C@H](CCNC(=O)c1cc(NC(=O)c2cc(NC(=O)c3cc(NC(=O)c4nccn4C)cn3C)cn2C)cn1C)C(=O)Nc1cn(C)c(C(=O)Nc2cc(C(=O)Nc3cc(C(=O)Nc4cc(C(=O)NCCCN(C)CCCNC(=O)c5cccc(C(=O)O)c5)n(C)c4)n(C)c3)n(C)c2)n1 [compound 2]

lung levels relative to compound 1 ([2]; 24 hours): almost eightfold higher
tumor-associated levels compared with compound 1 ([2]; 24 hours): within error
host tissue levels compared with compound 1 ([2]; 24 hours, kidney, liver, lung): substantially higher levels
lung concentration [2, 4]: 0.93 mg/kg
SMILES: CN(CCCNC(=O)c1cc(NC(=O)c2cc(NC(=O)c3cc(NC(=O)c4nc(NC(=O)[C@H](N)CCNC(=O)c5cc(NC(=O)c6cc(NC(=O)c7cc(NC(=O)c8nccn8C)cn7C)cn6C)cn5C)cn4C)cn3C)cn2C)cn1C)CCCN[14C](=O)c1cccc([14C](=O)O)c1 [compound 3]
liver toxicity [1]: resulted in liver toxicity

SMILES: COc1cccc2c1C(=O)c1c(O)c3c(c(O)c1C2=O)C[C@@](O)(C(=O)CO)C[C@@H]3O[C@H]1C[C@H](N)[C@H](O)[C@H](C)O1 [doxorubicin]
liver levels higher than MCF7 xenograft levels ([3]; 2 hour timepoint): ~2 fold
tumor localization value ([3]; MCF7 xenograft, i.p. 1.6 mg/kg, up to 24 hours after single injection): about 1 mg/kg
